This note sets out measurements from BindingDB's records for patent US11680056 (Xinthera, 2023).

Values joined by “and” are separate entries in the source; they are usually repeats but may differ in a detail not shown here. Identical values can stand only once.

T1 sequence (P49137 46-400): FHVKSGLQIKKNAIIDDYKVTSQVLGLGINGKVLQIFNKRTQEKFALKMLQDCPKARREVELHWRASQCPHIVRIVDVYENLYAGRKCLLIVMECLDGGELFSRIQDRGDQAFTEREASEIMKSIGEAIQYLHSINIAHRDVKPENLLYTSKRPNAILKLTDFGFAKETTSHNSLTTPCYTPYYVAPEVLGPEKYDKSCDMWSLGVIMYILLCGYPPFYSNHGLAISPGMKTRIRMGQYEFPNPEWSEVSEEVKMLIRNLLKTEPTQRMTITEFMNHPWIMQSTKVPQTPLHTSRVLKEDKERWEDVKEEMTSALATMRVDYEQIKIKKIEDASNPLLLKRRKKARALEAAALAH

This assay concerns the target T1, MAP kinase-activated protein kinase 2 [46-400] (Homo sapiens, UniProt P49137).
T1 construct: 46-400
In words: Biochemical Assay. On the procedure: This study evaluates the inhibitory potency of invention compound on p38/MK2 pathway vs p38/PRAK pathway. More specially the compound concentration (IC50) was determined that inhibited half of the maximal activation of MK2 or PRAK by p38. MK2 activation study was set up without or with a serial of 10-point 1:3 dilution of invention compound at top dose of […], and PRAK activation study was set up without or with a serial of 10-point 1:3 dilution of invention compound at top dose of 300 μM. The MK2 and PRAK activity were determined by the phosphorylation level of HSP27 peptide conjugated with FITC. […] After 2 h incubation of the reaction mixture with various concentration of invention compound (200 nL), 60 μL 1×IMAP solution Mixture (Molecular Devices, Cat R8127) was added to the reaction mixture and incubated for another half hour. The signal was then read by Synergy Neo2 Multi-Mode Microplate Reader with filter setting (Ex/Em=485 nm/FITC FP-P pol 528 nm & FITC FP-S pol 528 nm). The signal was then normalized to vehicle control and fitted in Xfit to generate IC50. The selectivity of MK2 over PRAK was calculated by the formular Selectivity=IC50 of PRAK/IC50 of MK2.
Consider `Cc1cnc(-n2nc(C(C)(C)O)cc2C2CC2)cc1-n1c(C)cc(OCc2ncc(F)cc2F)c(Cl)c1=O` [US11680056, Example 20A], for which the IC50 was 2000 nM and > 10000 nM.

Regarding `Cc1cnnc(COc2cc(C)n(-c3cc(-c4ccnc(C(C)(C)O)n4)ncc3C)c(=O)c2Cl)c1` [US11680056, Example 28A], the IC50 is greater than 10000 nM.

In the case of `Cc1nn(-c2ccnc(C(C)(C)O)n2)cc1-n1c(C)cc(OCc2ncc(F)cc2F)c(Cl)c1=O` [US11680056, Example 30], the half-inhibitory concentration (IC50) amounted to 631 nM.
